Reference: BindingDB's records for doi:10.1016/j.ejmech.2021.113775 (Laboratory For Marine Drugs and Bioproducts of Qingdao …, 2021)

The compounds below were run against Sphingosine 1-phosphate receptor 2 (Homo sapiens, UniProt O95136) (assay: Binding affinity to S1PR2 (unknown origin) assessed as dissociation constant measured for 60 secs by surface plasmon resonance assay).
Sequence of Sphingosine 1-phosphate receptor 2 (O95136 whole entry): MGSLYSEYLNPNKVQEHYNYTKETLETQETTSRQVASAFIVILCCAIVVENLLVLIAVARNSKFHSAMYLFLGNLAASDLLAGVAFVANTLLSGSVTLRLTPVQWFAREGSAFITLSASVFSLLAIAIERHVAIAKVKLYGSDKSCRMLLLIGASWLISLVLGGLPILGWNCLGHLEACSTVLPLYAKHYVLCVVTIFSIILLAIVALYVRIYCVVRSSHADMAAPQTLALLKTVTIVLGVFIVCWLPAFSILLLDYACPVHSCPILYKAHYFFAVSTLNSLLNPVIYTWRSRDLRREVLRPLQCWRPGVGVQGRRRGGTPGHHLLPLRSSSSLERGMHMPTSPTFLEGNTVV

Compared with `CNc1cc(C)nc(NNC(=O)Nc2cc(Cl)nc(Cl)c2)n1`, `Cc1cc(NC(=O)Nc2cc(Cl)nc(Cl)c2)cc(C)n1` is 1.6-fold lower in koff: 0.236 s⁻¹ for the first, 0.146 s⁻¹ for the second.

Going from `Cc1nn(C)c2nc(NNC(=O)Nc3cc(Cl)nc(Cl)c3)cc(C(C)C)c12` to `CN(C)c1nc(NNC(=O)Nc2cc(Cl)nc(Cl)c2)nc2c1ccn2C`, the koff falls from 0.161 s⁻¹ to 0.102 s⁻¹ (1.6-fold).

First: CC(C)Oc1cc(NC(=O)Nc2cc(Cl)nc(Cl)c2)cc(Cl)n1
Second: COc1cc(NC(=O)Nc2cc(Cl)nc(Cl)c2)cc(Cl)n1
The koff of the first is 1.8-fold lower: 0.119 s⁻¹ for the first, 0.219 s⁻¹ for the second.

`O=C(NNc1nc(N2CCOCC2)c2ccn(C3CC3)c2n1)Nc1cc(Cl)nc(Cl)c1` and `O=C(NNc1nc(Nc2ccccc2)nc(N2CCCC2)n1)Nc1cc(Cl)nc(Cl)c1` are the same in koff: 0.133 s⁻¹ for the first, 0.133 s⁻¹ for the second.

`Cn1ccc2c(-c3ccccc3)nc(NNC(=O)Nc3cc(Cl)nc(Cl)c3)nc21` and `O=C(Nc1cc(Cl)nc(Cl)c1)Nc1cc2ccc(-c3ccccc3)cn2n1` are within 1.5-fold of each other in koff: 0.136 s⁻¹ for the first, 0.201 s⁻¹ for the second.

`O=C(Nc1cc(Cl)nc(Cl)c1)Nc1cc2ccccn2n1` and `COc1ccc(-c2ccc3cc(NC(=O)Nc4cc(Cl)nc(Cl)c4)nn3c2)cc1` are within 1.5-fold of each other in koff: 0.116 s⁻¹ for the first, 0.112 s⁻¹ for the second.

Compared with `O=C(Nc1cc(Cl)nc(Cl)c1)Nc1cc(Cl)nc(OC2CCCC2)c1`, `CCOc1cc(NC(=O)Nc2cc(Cl)nc(Cl)c2)cc(Cl)n1` is 1.8-fold lower in koff: 0.179 s⁻¹ for the first, 0.102 s⁻¹ for the second.

Going from `O=C(Nc1ccnc(Cl)c1)Nc1cc(Cl)nc(Cl)c1` to `O=C(Nc1cc(Cl)nc(Cl)c1)Nc1cc(Cl)nc(Cl)c1`, the koff rises from 0.201 s⁻¹ to 0.697 s⁻¹ (3.5-fold).

First: CN1CCN(C(=O)Nc2cc(Cl)nc(Cl)c2)CC1
Second: Cc1cc(NC(=O)Nc2cc(Cl)nc(Cl)c2)n(C)n1
The koff of the first is 1.7-fold lower: 0.106 s⁻¹ for the first, 0.177 s⁻¹ for the second.

Compared with `O=C(Nc1cc(Cl)cc(Cl)c1)Nc1cc(Cl)nc(Cl)c1`, `COc1c(Cl)cc(NC(=O)Nc2cc(Cl)nc(Cl)c2)cc1Cl` is 2.7-fold higher in koff: 0.116 s⁻¹ for the first, 0.312 s⁻¹ for the second.
